What was measured:
Format in all cases: cell-based
[1] = RSV NHBE CC50 384 V2 (per Ex. U); settings: human
[2] = system: Respiratory syncytial virus recombinant with luciferase (RSV-Luc5) in HEp-2 cells; test: HEp-2 RSV-Luc5 384-well assay (EC50 RSVFLUC Hep2-384 v2, Example V); settings: human respiratory syncytial virus, HEp-2, 72 h, read-out: RSV Hep-2 FLuc EC50 (v2) (nM) (per Ex. V)
From the text: HEp-2 cell line was purchased from ATCC (Manassas, VA Cat #CCL-23) and maintained in Dulbecco's […] (DMEM) (Corning, New York, NY, Cat #15-018CM) supplemented with 10% fetal bovine serum (FBS) (Hyclone, Logan, UT, Cat #SH30071-03) and 1× Penicillin-Streptonycin-L-Glutamine (Corning, New York, NY, Cat #30-009-CI). Cells were passaged 2 times per week to maintain sub-confluent densities and were used for experiments at passage 5-20. Respiratory syncytial virus recombinant with luciferase (RSV-Luc5) (≥1×107 TCID50/ml) was purchased from Microbiologics (Saint Cloud, MN). Viral replication was determined in HEp-2 cells in the following manner.
(§1) Compounds are prepared in 100% DMSO in 384-well polypropylene plates (Greiner, Monroe, NC, Cat #784201) with 8 compounds per plate in grouped replicates of 4 at 10 serially diluted concentrations (1:3). The serially diluted compounds were transferred to low dead volume Echo plates (Labcyte, Sunnyvale, CA, Cat #LP-0200).
The test compounds were spotted to 384-well assay plates (Greiner, Monroe, NC, Cat #781091) at 200 nL per well. HEp-2 cells were harvested and suspended in DMEM (supplemented with 10% FBS and 1× Penicillin-Streptomycin-L-Glutamine) and seeded to the pre-spotted assay plates at 4,000 cells per well in 30 μL. RSV-Luc5 viruses were diluted in DMEM (supplemented with 10% FBS and 1× Penicillin-Streptomycin-L-Glucamine) at 200,000 Infectious Units (IU) per mL and 10 μL per well was added to the assay plates containing cells and compounds, for an MOI=0.5. The assay plates were incubated for 3 days at 37° C. and 5% CO2. At the end of incubation, One-Glo reagent (Promega, Madison, WI, Cat #E6120) was prepared. The assay plates and One-Glo reagent were equilibrated to room temperature for at least 15 minutes. 40 μL per well of One-Glo reagent was added and the plates were incubated at room temp for 15 minutes before reading the luminescence signal on an EnVision multimode plate reader (Perkin Elmer, Waltham, MA). Remdesivir was used as positive control and DMSO was used as negative control. Values were normalized to the positive and negative controls (as 0% and 100% replication, respectively) and data was fitted using non-linear regression analysis by Gilead's dose response tool. The EC50 value for each compound was then determined as the concentration reducing the viral replication by 50%.

[3] = system: Respiratory syncytial virus recombinant with luciferase (RSV-Luc5) in NHBE cells; test: NHBE RSV-Luc5 384-well assay (EC50 RSVFLUC NHBE-384, Example U); settings: human respiratory syncytial virus, 72 h, read-out: RSV FLuc NHBE 384 EC50 (v2) (nM) (per Ex. U)
Procedure: Normal Human Bronchial Epithelial (NHBE) cells were purchased from Lonza (Walkersville, MD Cat #CC2540) and maintained in BEGM Bronchial Epithelial Cell (Growth Medium BulletKit (Lonza CC-3170).
Cells were thawed, expanded, and were used for experiments at passage 2. Respiratory syncytial virus recombinant with luciferase (RSV-Luc5) (≥1×10^7 Infectious Units/ml (IU/ml) determined by TCID50) was purchased from Microbiologics (Saint Cloud, MN). Viral replication was determined in NHBE cells in the following manner.
as §1
The test compounds were spotted to 384-well assay plates (Greiner, Monroe, NC, Cat #781091) at 200 nL per well. NHBE cells were harvested and suspended in BEGM Bronchial Epithelial Cell Growth Medium BulletKit and seeded to the pre-spotted assay plates at 5,000 cells per well in 30 μL. RSV-Luc5 virus was diluted in BEGM Bronchial Epithelial Cell Growth Medium BulletKit at 500,000 Infectious Units (IU) per mL and 10 μL per well was added to the assay plates containing cells and compounds, for an MOI of 1. The assay plates were incubated for 3 days at 37° C. and 5% CO2. At the end of incubation, One-Glo reagent (Promega, Madison, WI, Cat #E6120) was prepared. The assay plates and One-Glo reagent were equilibrated to room temperature for at least 15 minutes. 40 μL per well of One-Glo reagent was added and the plates were incubated at room temperature for 15 minutes before reading the luminescence signal on an EnVision multimode plate reader (Perkin Elmer, Waltham, MA). Remdesivir was used as positive control and DMSO was used as negative control. Values were normalized to the positive and negative controls (as 0% and 100% replication, respectively) and data was fitted using non-linear regression analysis by Gilead's dose response tool. The EC50 value for each compound was defined as the concentration reducing the viral replication by 50%.

[4] = RSV HEP2-CC50-384-V2 (per Ex. V); settings: human

| Structure (SMILES) | CC50 at 3 days [1] [nM] | EC50 [2] [nM] | EC50 [3] [nM] | CC50 at 3 days ([4]; HEp-2 cells, 384-well, read-out: RSV HEP2-CC50-384-V2 (nM) (per Ex. V)) | CC50 at 3 days ([1]; NHBE cells, 384-well, read-out: RSV NHBE CC50 384 V2 (nM) (per Ex. U)) | CC50 at 3 days [4] [nM] |
| --- | --- | --- | --- | --- | --- | --- |
| CCCCCCCCCCCCCCCCOC[C@@H](COP(=O)(O)OC[C@@]1(C#N)O[C@@H](c2ccc3c(N)ncnn23)[C@H](O)[C@@H]1O)OCc1cc(Cl)cc(C#N)c1 [Compound 98, ((2R,3S,4R,5S)-5-(4-aminopyrrolo[2,1-f][1,2,4]triazin-7-yl)-2-cyano-3,4-dihydroxytetrahydrofuran-2-yl)methyl ((S)-2-((3-chloro-5-cyanobenzyl)oxy)-3-(hexadecyloxy)propyl) hydrogen phosphate] | 2900 | 34 | 11 |  |  |  |
| CCCCCCCCCCCCC[C@@H](COP(=O)(O)OC[C@@]1(C#N)O[C@@H](c2ccc3c(N)ncnn23)[C@H](O)[C@@H]1O)OCc1cc(F)cc(C#N)c1 [Compound 97, ((2R,3S,4R,5S)-5-(4-aminopyrrolo[2,1-f][1,2,4]triazin-7-yl)-2-cyano-3,4-dihydroxytetrahydrofuran-2-yl)methyl ((S)-2-((3-cyano-5-fluorobenzyl)oxy)pentadecyl) hydrogen phosphate] |  | 1490 | 45 | > 43900 | 3910 |  |
| CCCCCCCCCCCCCCCCCC[C@@H](COP(=O)(O)OC[C@@]1(C#N)O[C@@H](c2ccc3c(N)ncnn23)[C@H](O)[C@@H]1O)OCc1cc(Cl)cc(C#N)c1 [Compound 87, ((2R,3S,4R,5S)-5-(4-aminopyrrolo[2,1-f][1,2,4]triazin-7-yl)-2-cyano-3,4-dihydroxytetrahydrofuran-2-yl)methyl ((S)-2-((3-chloro-5-cyanobenzyl)oxy)icosyl) hydrogen phosphate] | 3450 | 443 | 133 |  |  | > 34800 |
| CCCCCCCCCCCCCCCCCCOC[C@H](COP(=O)(O)OC[C@@]1(C#N)O[C@@H](c2ccc3c(N)ncnn23)[C@H](O)[C@@H]1O)Oc1ccc(C#N)nc1 [Compound 24] | 937 |  | 4 |  |  |  |
| CCCCCCCCCCCCCC[C@@H](COP(=O)(O)OC[C@@]1(C#N)O[C@@H](c2ccc3c(N)ncnn23)[C@H](O)[C@@H]1O)OCc1cc(F)cc(C#N)c1 [Compound 86, ((2R,3S,4R,5S)-5-(4-aminopyrrolo[2,1-f][1,2,4]triazin-7-yl)-2-cyano-3,4-dihydroxytetrahydrofuran-2-yl)methyl ((S)-2-((3-cyano-5-fluorobenzyl)oxy)hexadecyl) hydrogen phosphate] | 2900 | 546 | 25 |  |  | > 50000 |
| CCCCCCCCCCCCCCCCCC[C@@H](COP(=O)(O)OC[C@@]1(C#N)O[C@@H](c2ccc3c(N)ncnn23)[C@H](O)[C@@H]1O)OCc1ccccc1 [Compound 93, ((2R,3S,4R,5S)-5-(4-aminopyrrolo[2,1-f][1,2,4]triazin-7-yl)-2-cyano-3,4-dihydroxytetrahydrofuran-2-yl)methyl ((S)-2-(benzyloxy)icosyl) hydrogen phosphate] | 8140 | 3060 | 663 |  |  | > 50000 |
| CCCCCCCCCCCCCCCCCCOC[C@](C)(COP(=O)(O)OC[C@@]1(C#N)O[C@@H](c2ccc3c(N)ncnn23)[C@H](O)[C@@H]1O)OCc1cc(F)cc(C#N)c1 [Compound 94, ((2R,3S,4R,5S)-5-(4-aminopyrrolo[2,1-f][1,2,4]triazin-7-yl)-2-cyano-3,4-dihydroxytetrahydrofuran-2-yl)methyl ((R)-2-((3-cyano-5-fluorobenzyl)oxy)-2-methyl-3-(octadecyloxy)propyl) hydrogen phosphate] | 16000 | 339 | 59 |  |  | > 50000 |
| CCCCCCCCCCCCCCCCCC[C@@H](COP(=O)(O)OC[C@@]1(C#N)O[C@@H](c2ccc3c(N)ncnn23)[C@H](O)[C@@H]1O)Oc1cc(F)cc(C#N)c1 [Compound 96, ((2R,3S,4R,5S)-5-(4-aminopyrrolo[2,1-f][1,2,4]triazin-7-yl)-2-cyano-3,4-dihydroxytetrahydrofuran-2-yl)methyl ((S)-2-(3-cyano-5-fluorophenoxy)icosyl) hydrogen phosphate] | 5240 | 368 | 67 |  |  | > 38100 |

Reference: patent US20250034182A1, “PHOSPHOLIPID COMPOUNDS AND METHODS OF MAKING AND USING THE SAME” (priority 2021, published 2025)
